Results reported in ChEMBL document CHEMBL1142226, “Impact of physicochemical and structural properties on the pharmacokinetics of a series of alpha1L-adrenoceptor antagonists” (Drug Metab Dispos, 2007).

Tests used:
[1] = Metabolic stability in Sprague-Dawley rat assessed as hepatic extraction ratio; type: ADME, tissue-based; details: liver
[2] = Metabolic stability in Sprague-Dawley rat liver microsomes assessed as half life; type: ADME, Microsome
[3] = Metabolic stability in Sprague-Dawley rat bile assessed as drug remaining; type: ADME
[4] = Elimination half life in Beagle dog at 0.5 mg/kg, iv; type: ADME, organism-based, Canis lupus familiaris; set-up: dose 0.5 mg/kg, route intravenous; details: in vivo
[5] = Dissociation constant, pKa of the compound; type: physicochemical
[6] = Lipophilicity, log D in 0.1M potassium phosphate buffer at pH 7.4; type: physicochemical
[7] = Protein binding in Beagle dog plasma at 1 ug/ml; type: ADME, cell-free, Canis lupus familiaris; details: read-out: PPB (converted)
[8] = Metabolic stability in Beagle dog liver microsomes assessed as half life at 1 uM; type: ADME, Canis lupus familiaris, Microsome
[9] = Metabolic stability in human liver microsomes assessed as half life at 1 uM; type: ADME, Microsome
[10] = Plasma clearance in Beagle dog at 0.5 mg/kg, iv; type: ADME, organism-based, Canis lupus familiaris; set-up: dose 0.5 mg/kg, route intravenous
[11] = Oral bioavailability in Beagle dog at 2 mg/kg; type: ADME, organism-based, Canis lupus familiaris; details: in vivo
Liver microsomes = test: Unbound intrinsic clearance in human liver microsomes at 1 uM; type: ADME, Microsome
Canis familiaris [12] = test: Unbound plasma clearance in Beagle dog at 0.5 mg/kg, iv; type: ADME, organism-based, Canis lupus familiaris; set-up: dose 0.5 mg/kg, route intravenous; details: in vivo
Liver = test: Unbound intrinsic clearance in Beagle dog liver microsomes at 1 uM; type: ADME, Canis lupus familiaris, Microsome
Canis familiaris [13] = test: Unbound volume of distribution in Beagle dog at 0.5 mg/kg, iv; type: ADME, organism-based, Canis lupus familiaris; set-up: dose 0.5 mg/kg, route intravenous; details: in vivo
[14] = Volume of distribution in Beagle dog at 0.5 mg/kg, iv; type: ADME, organism-based, Canis lupus familiaris; set-up: dose 0.5 mg/kg, route intravenous; details: in vivo
[15] = Oral absorption in Beagle dog at 2 mg/kg, po; type: ADME, organism-based, Canis lupus familiaris; set-up: dose 2 mg/kg, route oral; details: in vivo, read-out: Fabs
[16] = Fraction unbound in human liver microsomes at 1 uM; type: ADME, Microsome
[17] = Fraction unbound in Beagle dog liver microsomes at 1 uM; type: ADME, Canis lupus familiaris, Microsome
Rattus norvegicus [18] = test: Unbound volume of distribution in Sprague-Dawley rat at 3 mg/kg, iv; type: ADME, organism-based; set-up: dose 3 mg/kg, route intravenous; details: in vivo
[19] = Elimination half life in Sprague-Dawley rat at 3 mg/kg, iv; type: ADME, organism-based; set-up: dose 3 mg/kg, route intravenous; details: in vivo
Hepatocyte = test: Drug uptake in Sprague-Dawley rat hepatocytes assessed per 10^6 cells; type: ADME, cell-based
Homo sapiens = species on record: Homo sapiens; test: Protein binding in human plasma at 1 ug/ml; details: read-out: PPB (converted)
[20] = Plasma clearance in Sprague-Dawley rat at 3 mg/kg, iv; type: ADME, organism-based; set-up: dose 3 mg/kg, route intravenous
[21] = Volume of distribution in Sprague-Dawley rat at 3 mg/kg, iv; type: ADME, organism-based; set-up: dose 3 mg/kg, route intravenous; details: in vivo
Rattus norvegicus [22] = test: Unbound plasma clearance in Sprague-Dawley rat at 3 mg/kg, iv; type: ADME, organism-based; set-up: dose 3 mg/kg, route intravenous; details: in vivo
[23] = Protein binding in Sprague-Dawley rat plasma at 1 ug/ml; type: ADME, cell-free; details: read-out: PPB (converted)
[24] = Drug uptake in Sprague-Dawley rat hepatocytes; type: ADME, cell-based, Hepatocyte
[25] = Oral absorption in Beagle dog at 0.5 mg/kg, po; type: ADME, organism-based, Canis lupus familiaris; set-up: dose 0.5 mg/kg, route oral; details: in vivo, read-out: Fabs
[26] = Oral bioavailability in Beagle dog at 0.5 mg/kg; type: ADME, organism-based, Canis lupus familiaris; details: in vivo
[27] = Tmax in human at 0.86 mg/kg, po; type: ADME, organism-based; set-up: dose 0.86 mg/kg, route oral; details: in vivo
[28] = Tmax in Sprague-Dawley rat at 4 mg/kg, po; type: ADME, organism-based; set-up: dose 4 mg/kg, route oral; details: in vivo
Rattus norvegicus [29] = test: Unbound volume of distribution in Sprague-Dawley rat at 0.5 mg/kg, iv; type: ADME, organism-based; set-up: dose 0.5 mg/kg, route intravenous; details: in vivo
[30] = Oral bioavailability in Sprague-Dawley rat at 4 mg/kg; type: ADME, organism-based; details: in vivo
[31] = Cmax in human at 0.86 mg/kg, po; type: ADME, organism-based; set-up: dose 0.86 mg/kg, route oral; details: in vivo
[32] = Elimination half life in Sprague-Dawley rat at 4 mg/kg, po; type: ADME, organism-based; set-up: dose 4 mg/kg, route oral; details: in vivo
Rattus norvegicus [33] = test: Unbound plasma clearance in Sprague-Dawley rat at 0.5 mg/kg, iv; type: ADME, organism-based; set-up: dose 0.5 mg/kg, route intravenous; details: in vivo
[34] = Elimination half life in human at 0.86 mg/kg, po; type: ADME, organism-based; set-up: dose 0.86 mg/kg, route oral; details: in vivo
[35] = Elimination half life in Sprague-Dawley rat at 0.5 mg/kg, iv; type: ADME, organism-based; set-up: dose 0.5 mg/kg, route intravenous; details: in vivo
[36] = Cmax in Sprague-Dawley rat at 4 mg/kg, po; type: ADME, organism-based; set-up: dose 4 mg/kg, route oral; details: in vivo
[37] = Oral absorption in Beagle dog at 4 mg/kg, po; type: ADME, organism-based, Canis lupus familiaris; set-up: dose 4 mg/kg, route oral; details: in vivo, read-out: Fabs
[38] = Plasma clearance in Sprague-Dawley rat at 0.5 mg/kg, iv; type: ADME, organism-based; set-up: dose 0.5 mg/kg, route intravenous
[39] = Oral bioavailability in Beagle dog at 4 mg/kg; type: ADME, organism-based, Canis lupus familiaris; details: in vivo
[40] = Volume of distribution in Sprague-Dawley rat at 0.5 mg/kg, iv; type: ADME, organism-based; set-up: dose 0.5 mg/kg, route intravenous; details: in vivo

hepatic extraction ratio [1] | half-life [2] [h] | Stability [3] [%] | half-life [4] [h] | pKa [5] | logD [6] | fraction unbound at 1 ug/ml [7] | half-life at 1 µM [8] [h] | half-life at 1 µM [9] [h] | clearance [10] [mL/min/kg] | CL (Liver microsomes) [mL/min/kg] | CL (Canis familiaris [12]) [mL/min/kg] | CL (Liver) [mL/min/kg] | Vd (Canis familiaris [13]) [L/kg] | Vd [14] [L/kg] | fraction unbound at 1 µM [16] | fraction unbound at 1 µM [17] | fraction unbound at 1 ug/ml (Homo sapiens) | fraction unbound at 1 ug/ml [23] | Fa [25] [%] | SMILES | further results
 |  |  | 2.3 | 6.6 | 2.1 | 0.22 | 0.233 | 0.0833 | 23 | 96 | 200 | 162 | 20 | 4.3 | 0.637 | 0.791 |  |  |  | COc1cc2nc(N3CCCN(C(=O)N4CCOCC4)CC3)nc(N)c2cc1-c1ccccn1 | bioavailability [11]: 35%; Fa [15]: 65%
 |  |  | 1.9 | 7.5 | 1.1 | 0.22 | 1.33 | 0.317 | 5.9 |  |  |  | 4.5 | 1 | 0.745 | 0.962 |  |  | 86 | COc1cc2nc(N3CCCN(C(=O)N4CCOCC4)CC3)cc(N)c2c(-c2ncco2)c1OC | bioavailability [26]: 76%

More lines, now with the values behind:

SMILES | hepatic extraction ratio [1] | half-life [2] [h] | Stability [3] [%] | half-life [4] [h] | pKa [5] | logD [6] | fraction unbound at 1 ug/ml [7] | half-life at 1 µM [8] [h] | half-life at 1 µM [9] [h] | clearance [10] [mL/min/kg] | CL (Liver microsomes) [mL/min/kg] | CL (Canis familiaris [12]) [mL/min/kg] | CL (Liver) [mL/min/kg] | Vd (Canis familiaris [13]) [L/kg] | Vd [14] [L/kg] | fraction unbound at 1 µM [16] | fraction unbound at 1 µM [17] | fraction unbound at 1 ug/ml (Homo sapiens) | fraction unbound at 1 ug/ml [23] | Fa [25] [%] | further results
COc1cc2nc(N3CCCN(C(=O)N4CC(O)C(O)C4)CC3)nc(N3CC4C(CC(=O)OC(C)(C)C)C4C3)c2cc1OC (stereo not drawn) | 0.75 | > 2 | 90 |  |  |  |  |  |  |  |  |  |  |  |  |  |  |  |  |  | 
COc1cc2c(cc1OC)CN(c1nc(N3CCCN(C(=O)N4CC(O)C(O)C4)CC3)nc3cc(OC)c(OC)cc13)CC2 (stereo not drawn) | 0.7 | > 2 | 90 | 2.4 | 6.2 | 4 | 0.1 |  |  | 47 |  | 470 |  | 100 | 10 |  |  | 0.03 | 0.05 |  | Vd (Rattus norvegicus [18]): 186 L/kg; half-life [19]: 1.4 h; Vmax (Hepatocyte): 481 pmol/min; clearance [20]: 135 mL/min/kg; Vd [21]: 9.3 L/kg; CL (Rattus norvegicus [22]): 2700 mL/min/kg; Km [24]: 6.5 µM
COc1cc2nc(N3CCc4ncccc4C3)nc(N)c2c(-c2ncccn2)c1OC |  |  |  | 1.5 | 6.5 | 2.1 | 0.45 | 0.6 | 0.517 | 40 | 12 | 450 | 50 | 11 | 5.1 | 0.823 | 1 |  |  | 100 | bioavailability [26]: 28%
COc1cc2nc(N3CCCN(C(=O)N4CCOCC4)CC3)cc(N)c2c(-c2ccc(F)cc2)c1OC |  |  |  | 6.3 | 8.5 | 1.8 | 0.04 | 0.5 | 0.1 | 15 | 154 | 536 | 100 | 96 | 4.8 | 0.331 | 0.602 | 0.06 | 0.08 |  | Tmax [27]: 0.7 h; Tmax [28]: 4 h; Vd (Rattus norvegicus [29]): 70 L/kg; bioavailability [30]: 11%; Cmax [31]: 63 ng/mL; half-life [32]: 2.8 h; CL (Rattus norvegicus [33]): 61250 mL/min/kg; half-life [34]: 12 h; half-life [35]: 1 h; Cmax [36]: 14 ng/mL; Fa [37]: 100%; clearance [38]: 91 mL/min/kg; bioavailability [39]: 71%; Vd [40]: 5.6 L/kg
